The subject of one data set is restraint ulcer. Nature of the data set: Inhibition of Restraint Ulcer in Rats. The following applies: Rattus norvegicus. Format: in vivo, Sprague-Dawley rats (male). As to the method: (B 1) Inhibition of Restraint Ulcer in Rats (Bonfils et al, Therapie, 1960, 15, 1096).
Six Sprague - Dawley male rats (100-120 g) fasted for 24 hours were used for each group. A square flexible small-mesh wire netting was used for immobilization. After 4 hours immobilization the rats were sacrificed, their stomachs were removed, and lesions counted under a dissecting microscope.
The results obtained are reported below in Table 1, wherein the values are given as ED50.
The compounds were administered subcutaneously (s.c.) immediately before the immobilization or orally (os) one hour before.

The test system of a further data set is gastric secretion. The experiment in a line: Inhibition of Gastric Secretion in Rats (pylorus ligature). It is filed as in vivo, Sprague-Dawley rats (male). The following applies: Rattus norvegicus, sc, 4 h, s.c. at the time of ligature, read-out: ED50 Antisecretory s.c. As to the method: (2) Inhibition of Gastric Secretion in Rats (Shay, Gastroenterology, 1945, 43, 5).
Gastric antisecretory activity was evaluated in rats by the pylorus ligature technique. Six Sprague-Dawley male rats (110-130 g) were used for each group. Twenty-four hours before the test, the rats were deprived of food but their water supply was maintained. On the day of the operation, the pylorus was ligated under light ether anaesthesia. Four hours after the ligature, the rats were sacrificed, the stomach secretion was collected and centrifuged at 3500 r.p.m. for 10 minutes, and the volume, less sediment, was determined.
The amount of the free hydrochloric acid in the gastric juice was determined by titration against 0.01 N sodium hydroxide, using Topfer's Indicator. Each compound was injected subcutaneously at the time of ligature.

Data set [1] is described as follows: Anticholinergic Activity in Rats. The arrangement: species or system Sprague-Dawley rats (male). The following applies: rat, in vivo. As to the method:
(3) Anticholinergic Activity in Rats. Considering that many anti-ulcer agents display, as does atropine, a remarkable but undesired anti-cholinergic activity, some derivatives were assessed for their antagonism against chromodacryorrhea induced by carbacholine in rats. (Winburg M. et al, J. Pharm. Exp. Therap., 1949, 95, 53).

The subject of data set [2] is acetylsalicylic acid-induced gastric ulcers. Nature of the data set: Inhibition of Acetylsalicylic Acid-Induced Gastric Ulcers in Rats. Format: in vivo, Sprague-Dawley rats (male). The following applies: Rattus norvegicus, 4 h. How it is done:
(4) Inhibition of Acetylsalicylic Acid-Induced Gastric Ulcers in Rats.
Six Sprague-Dawley male rats (200-250 g) were used for each group. Twenty-four hours before the test, the rats were deprived of food but their water supply was maintained. Acetylsalicylic acid (100 mg/Kg) suspended in 5% gum arabic solution was given orally to the rats. Antagonists, at 3 dose levels, were given orally 60 minutes, and subcutaneously 30 minutes, before the acetylsalicylic acid treatment.
After sacrificing the animals, four hours after administration of the antagonist, the stomachs were removed, slightly inflated and immersed in 1% formalin solution for 10 minutes for fixation.
Subsequently, the stomachs were incised along the greater curvature and the lengths of lesions measured under a dissecting microscope (10 X) with a square grid. The sum of the lengths (mm) of the lesions per rat was used as the ulcer index. The percentage inhibition was calculated in respect of the ulcer index of the control group.

The test system of data set [3] is cysteamine-induced duodenal lesions. Nature of the data set: Inhibition of Cysteamine-Induced Duodenal Lesions in Rats. It is filed as in vivo, Sprague-Dawley rats (male). To be noted: Rattus norvegicus. As to the method: (5) Inhibition of Cysteamine-Induced Duodenal Lesions in Rats.
Six Sprague-Dawley male rats (200-225 g) were used for each group. Twenty-four hours before the test, the rats were deprived of food but allowed free access to water. Cysteamine HCl (400 mg/Kg) dissolved in physiological saline was administered subcutaneously.
Antagonists were given orally 60 minutes, and subcutaneously 30 minutes, before the cysteamine treatment. The animals were kept fasting completely for 18-24 hours after cysteamine administration, then sacrificed by an overdose of ether.
The stomach and duodenum of each rat were excised to determine the presence of gastroduodenal lesions. The sum of the area (mm^2) of lesions for each rat was measured under a dissecting microscope (10X) with a square grid and then used as an ulcer index. The percentage inhibition was calculated in respect of the ulcer index of the control group.

Another data set can be described thus: Toxicity (LD50) in mice. The following applies: mouse, in vivo, po, os. As to the method: Four compounds were examined also for the activity on acetylsalicyclic acid- and cysteamine-induced ulcers and their toxicity was also determined in mice.
Where [4] appears, read: po, 1 h, orally one hour before immobilization, read-out: ED50 Antiulcer os.
The mark [5] stands for this setting: sc, 4 h, s.c. immediately before the immobilization, read-out: ED50 Antiulcer s.c.
Setting [6] is: po, os, read-out: ED50 Anticholinergic os.
[7] abbreviates: sc, read-out: ED50 Anticholinergic s.c.
The mark [8] stands for this setting: po, orally 60 minutes before acetylsalicylic acid, read-out: ED50 Acetylsalicilic acid os.
Setting [9] is: sc, s.c. 30 minutes before acetylsalicylic acid, read-out: ED50 Acetylsalicilic acid s.c.
[10] abbreviates: po, orally 60 minutes before cysteamine, read-out: ED50 Cysteamine os.
[11] abbreviates: sc, s.c. 30 minutes before cysteamine, read-out: ED50 Cysteamine s.c.

Usually ED50 stands for the dose that gives a 50% effect, or the effect in half of the subjects. What is called LD50 is the dose expected to kill half of the subjects tested. High values mean a less toxic substance, low ones a more toxic substance.

Each structure is given as a SMILES string. Read-outs that look alike come from different tables or passages of the source.

As to `CCC1c2ncn(CC)c2CCN1C(=S)NC(C)C` (stereo not drawn) [I C2 H5 C2 H5 i.Pr, 1,4-Diethyl-5-(N-isopropylthiocarbamoyl)-4,5,6,7-tetrahydroimidazo-[4,5-c]-pyridine], the ED50 in the data set on restraint ulcer (setting [4]) was 3.5 mg/kg; with restraint ulcer (setting [5]), 2 mg/kg; in the data set on gastric secretion, 6 mg/kg; in data set [1] (setting [6]) it was above 400 mg/kg; in data set [1] (setting [7]) it was above 200 mg/kg; in data set [2] (setting [8]), 0.7 mg/kg. For the same compound, the ED50 in data set [2] (setting [9]) amounted to 0.7 mg/kg; in data set [3] (setting [10]), 10 mg/kg; in data set [3] (setting [11]), 0.5 mg/kg. In “Toxicity (LD50) in mice”, this compound displayed an LD50 above 2500 mg/kg.

With `CCC1c2ncn(C)c2CCN1C(=S)NC(C)C` (stereo not drawn) [I CH3 C2 H5 i.Pr, 1-Methyl-4-ethyl-5-(N-isopropylthiocarbamoyl)-4,5,6,7-tetrahydroimidazo-[4,5-c]-pyridine], the ED50 with restraint ulcer (setting [4]) is 2.5 mg/kg; with restraint ulcer (setting [5]) it was 4 mg/kg; in the data set with gastric secretion, 20 mg/kg; in data set [1] (setting [6]), above 100 mg/kg; in data set [1] (setting [7]), above 100 mg/kg; in data set [2] (setting [8]), 20 mg/kg. The values for the ED50 in data set [2] (setting [9]), in data set [3] (setting [10]) and in data set [3] (setting [11]) were 10 mg/kg, 40 mg/kg and 20 mg/kg, respectively. In “Toxicity (LD50) in mice”, this compound displayed an LD50 above 2500 mg/kg.

For the compound `CNC(=S)N1CCc2c(ncn2C)C1` [I CH3 H CH3, 1-Methyl-5-(N-methylthiocarbamoyl)-4,5,6,7-tetrahydroimidazo-[4,5-c]-pyridine], the ED50 is 25 mg/kg in the data set on restraint ulcer (setting [4]); 15 mg/kg in the data set on restraint ulcer (setting [5]); 30 mg/kg in the data set with gastric secretion; above 100 mg/kg in data set [1] (setting [6]); above 100 mg/kg in data set [1] (setting [7]).

As for `CC(C)NC(=S)N1CCc2c(ncn2C)C1` [I CH3 H i.Pr, 1-Methyl-5-(N-isopropylthiocarbamoyl)-4,5,6,7-tetrahydroimidazo-[4,5-c]-pyridine], the ED50 in the data set on restraint ulcer (setting [4]) came out at 4.5 mg/kg; in the data set on restraint ulcer (setting [5]) it was 1.2 mg/kg; in the data set with gastric secretion it was 26 mg/kg; in data set [1] (setting [6]), 100 mg/kg; in data set [1] (setting [7]), 25 mg/kg.

As for `CCC1c2c(ncn2CC)CCN1C(=S)NC(C)C` (stereo not drawn) [II C2 H5 C2 H5 i.Pr, 3,4-diethyl-5-(N-isopropylthiocarbamoyl)-4,5,6,7-tetrahydroimidazo-[4,5-c]-pyridine, reference compound], the ED50 is 10 mg/kg in the data set with gastric secretion; above 100 mg/kg in data set [1] (setting [6]); above 100 mg/kg in data set [1] (setting [7]); 9 mg/kg in data set [2] (setting [8]); 6.5 mg/kg in data set [2] (setting [9]); 40 mg/kg in data set [3] (setting [10]). Moreover, in data set [3] (setting [11]), the ED50 was 5.5 mg/kg. The same compound returned an LD50 in the data set “Toxicity (LD50) in mice” of 870 mg/kg.

Consider `CCC1c2c(ncn2C)CCN1C(=S)NC(C)C` (stereo not drawn) [II CH3 C2 H5 i.Pr, 3-Methyl-4-ethyl-5-(N-isopropylthiocarbamoyl)-4,5,6,7-tetrahydroimidazo-[4,5-c]-pyridine, reference compound], for which the ED50 in the data set with restraint ulcer (setting [4]) turned out to be 50 mg/kg; in the data set on restraint ulcer (setting [5]), 10 mg/kg; in the data set on gastric secretion, 50 mg/kg; in data set [1] (setting [6]), 60 mg/kg; in data set [1] (setting [7]), 40 mg/kg; in data set [2] (setting [8]) it was 40 mg/kg. The ED50 came out at 25 mg/kg in data set [2] (setting [9]), 100 mg/kg in data set [3] (setting [10]) and 50 mg/kg in data set [3] (setting [11]). The compound further yielded an LD50 in the data set “Toxicity (LD50) in mice” of 980 mg/kg.

In the case of `CNC(=S)N1CCc2ncn(C)c2C1` [II CH3 H CH3, reference compound], the ED50 came to 50 mg/kg in the data set with restraint ulcer (setting [4]); 50 mg/kg with restraint ulcer (setting [5]); 50 mg/kg in the data set with gastric secretion; 100 mg/kg in data set [1] (setting [6]); 50 mg/kg in data set [1] (setting [7]).

As to `CC(C)NC(=S)N1CCc2ncn(C)c2C1` [II CH3 H i.Pr, 3-Methyl-5-(N-isopropylthiocarbamoyl)-4,5,6,7-tetrahydroimidazo-[4,5-c]-pyridine], the results for the 50% effective dose (ED50) in data set [1] (setting [6]) and in data set [1] (setting [7]) were 50 mg/kg and 7 mg/kg, respectively.

Take `C/N=C(\S)NCCSCc1[nH]cnc1C` [Methiamide]: the median effective dose (ED50) in data set [1] (setting [6]) is 85 mg/kg; in data set [1] (setting [7]), 65 mg/kg.

(Values after patent US4223146A, “4,5,6,7-Tetrahydroimidazo-[4,5-c]-pyridine derivatives” (Farmitalia Carlo Erba S.p.A., priority 1978, dated 1980).)
